The values that follow come from patent US12685740B2, “Compositions for the elimination of senescent cells” (Universität für Bodenkultur Wien, priority 2018, dated 2026).

One data set concerns the target COX-1 (Homo sapiens, UniProt P23219). The note with it: cited from earlier work.
Data set [1] concerns Doxorubicin-induced premature senescent HDF76, HDF161, HDF164. The data set is described as follows: Alamar blue viability assay, SIPS vs quiescent HDF, combined data of three donors (FIG. 9, 11). In kind it is cell-based, human. As to the method: (§1) Cells were seeded at a cell density of 2,800 cells/cm^2 one day prior to the treatment. The cells were treated nine times over a period of 11 days with 60-80 μM H2O2 supplemented to the media for one hour followed by a media change. Alternatively, depending on cell type cells were seeded at a cell density of 3,500-7,000 cells/cm^2 one day prior to the treatment and SIPS was induced with 100-200 nM doxorubicin (D1515, Sigma-Aldrich) supplemented to the medium for 6 days. Induction of senescence was verified by SA-β-gal staining, p21 expression, and absence of BrdU incorporation. AnnexinV/PI staining was performed to assure that the treatment was non-lethal and SIPS HDFs were cultured and monitored for over 50 days to assure that the induced growth arrest was permanent (Terlecki-Zaniewicz et al. 2018).
(§2) Alamar blue (DAL1100, Thermo Fisher Scientific) assay was performed according to the manufacturer's instructions. Cells were treated with the respective substances for 9 days with a media change on day 0, 3 and 6. The control was treated with the respective concentration of the solvent (DMSO).
(§3) Premature senescence was induced in adult and foreskin HDFs with doxorubicin, which was supplemented to the growth media for 6 days. Treatment with senolytic substances started 8 days after completion of the SIPS treatment to allow for cells to enter senescence. Quiescent cells were used as control. Growth media was supplemented with senolytic substances for 9 days with media changes every 3 days. All samples, including the control, contained the same concentration of solvent (DMSO). Subsequently, the viability was assessed using an alamar blue assay (Thermo Fisher Scientific).

Data set [2] relates to Doxorubicin-induced premature senescent HLF102. Put plainly: Alamar blue viability assay, doxorubicin-induced SIPS vs quiescent HLF102 (FIG. 12). It counts as cell-based, human. The procedure:
as §1, §2

Data set [3] has as its system Doxorubicin-induced premature senescent RPTEC1. Put plainly: Alamar blue viability assay, doxorubicin-induced SIPS vs quiescent RPTEC1 (FIG. 13). In kind it is cell-based, human. As to the method:
as §1, §2
(The colour change of resazurin is a common sign of viable cells or microbes.)

Data set [4] deals with doxorubicin-induced premature senescent HUVECs. The data set is described as follows: Alamar blue viability assay, doxorubicin-induced SIPS vs quiescent HUVECs (FIG. 5). It counts as cell-based, human. Particulars: single treatment, 9 days, SIPS vs quiescent (Q) HUVECs. The procedure:
as §1, §2
Premature senescence was induced in HUVECs with doxorubicin (Sigma-Aldrich), which was supplemented to the growth media for 6 days. Treatment with senolytic substances started 8 days after completion of the SIPS treatment to allow for cells to enter senescence. Quiescent cells were used as control. Growth media was supplemented with senolytic substances for 9 days with media changes every 3 days. All samples, including the control, contained the same concentration of solvent (DMSO). Subsequently, the viability was assessed using an alamar blue assay (Thermo Fisher Scientific) (FIG. 5).

Data set [5] concerns Doxorubicin-induced premature senescent HDF76, HDF85, HDF161. Put plainly: Rescue of senolytic effect by manipulating cPLA2 activity, viability after 72 hours (FIG. 18). It counts as cell-based. As to the method: Doxorubicin-induced premature senescent HDF76, HDF85, HDF161 (SIPS) and quiescent control cells (Q) were either treated for 72 hours with the combination of 1 μM ACSL4 inhibitor Triacsin C (TrC) and 1 μM ALOXS inhibitor MK886 alone or in addition with either 2.5 μM A23187 (cPLA2 activator) or 12.5 μM ASB14780 (cPLA2 inhibitor).
This was also the case, when the enzymatic activity of the cytosolic phospholipase A2 was reduced by the small molecule inhibitor ASB14780 (Sigma Aldrich, SML1913).

The subject of data set [6] is Doxorubicin-induced premature senescent HDF161. The data set is described as follows: Alamar blue viability assay, doxorubicin-induced SIPS vs quiescent HDF161 (FIG. 6). It counts as cell-based, human. The note with it: for EC50: read-out: EC50 for senescent cells. As to the method: as §1, §2, §3
For data set [7], the system named is intracellular levels of AA of HDF161. Put plainly: Quantification of intracellular arachidonic acid by ELISA (FIG. 17b). In kind it is cell-based, human. The note with it: 10 μM MK886 together with 100 μM Diclofenac for 6 hrs, vs solvent (1% DMSO). As to the method: The cells were harvested by trypsinization, centrifuged at 1000 g and 4° C. for 5 min and washed three times with cold PBS. The Cells were counted using a Vi-CELL XR (Beckman Coulter) automated cell counter and the cell pellets were resuspended in cold PBS to obtain a cell suspension with 2000-5000 cells/μl. Subsequently the cells were lysed by 30 cycles of sonication (30 s on, 30 s off) in a Bioruptor (Diagenode). Cell debris was removed by 10 min centrifugation at 1500 g and 4° C. and the supernatant was analyzed with an ELISA assay (Novus Biologicals; NBP2-66372) according to the manufacturer's instructions.
In order to verify, whether novel senolytics can be identified in an efficient screen measuring the intracellular levels of AA, an ELISA test (Novus Biologicals; NBP2-66372) was used according to the manufacturer's instructions to first, confirm that novel senolytics identified in the examples above indeed lead to an accumulation of intracellular AA, and second, to screen for compounds, which cause an increase of intracellular levels of AA in senescent HDFs.
On the technique in general: In an ELISA, binding on a coated surface is turned into a signal by an enzyme label.

The test system of data set [8] is Doxorubicin-induced premature senescent fHDF166. Put plainly: Alamar blue viability assay, doxorubicin-induced SIPS vs quiescent fHDF166 (FIG. 8, 15). The note with it: for EC50: read-out: EC50 for senescent cells. In kind it is cell-based, human. The procedure:
as §1, §2, §3
In order to test this, premature senescence was induced in foreskin HDFs with doxorubicin, which was supplemented to the growth media for 6 days. Treatment with senolytic substances started 8 days after completion of the SIPS treatment to allow for cells to enter senescence. Quiescent cells were used as control. Growth media was supplemented with senolytic substances for 9 days with media changes every 3 days. All samples, including the control, contained the same concentration of solvent (DMSO). Subsequently, the viability was assessed using an alamar blue assay (Thermo Fisher Scientific).

For data set [9], the system named is Doxorubicin-induced premature senescent HDF164. Put plainly: Alamar blue viability assay, doxorubicin-induced SIPS vs quiescent HDF164 (FIG. 7, 14). It counts as cell-based, human. Particulars: for EC50: read-out: EC50 for senescent cells. As to the method:
as §1, §2, §3
Premature senescence was induced in adult HDFs with doxorubicin, which was supplemented to the growth media for 6 days. Treatment with senolytic substances started 8 days after completion of the SIPS treatment to allow cells to enter senescence. Quiescent cells were used as control. Growth media was supplemented with senolytic substances for 9 days with media changes every 3 days. All samples, including the control, contained the same concentration of solvent (DMSO). Subsequently, the viability was assessed using an alamar blue assay (Thermo Fisher Scientific).

Data set [10] relates to H2O2-induced premature senescent human dermal fibroblasts. Put plainly: Alamar blue viability assay, H2O2-induced premature senescent (SIPS) vs quiescent HDFs (FIG. 4). In kind it is cell-based. Particulars: single treatment, 9 days, SIPS vs quiescent (Q) HDFs. The procedure: as §1, with “([…],” for “(D1515,”, “([…]” for “(Terlecki-Zaniewicz”, “2018). Alamar blue (DAL1100, Thermo Fisher Scientific) assay was performed according to the manufacturer's instructions. […] The control was treated with the respective concentration of the solvent (DMSO). Premature senescence was induced in HDF with chronic oxidative stress treatment (9 doses of H2O2 treatment over the period of 11 days). Quiescent cells were used as control. […] Subsequently, the viability was assessed using an alamar blue assay (Thermo Fisher Scientific).” for “2018).”

Another data set has as its target cyclooxygenase. The note with it: Wang et al. 2000; read-out: IC50 of inhibiting cyclooxygenase activity; cited from earlier work.
Setting [11] is: single treatment (DQ: 15 μM Quercetin with increasing Dasatinib).
[12] abbreviates: 12.5 μM ASB14780 added to 1 μM TrC and 1 μM MK886, 72 hours.
The mark [13] stands for this setting: MK886 combined with 50 μM Diclofenac.
Where [14] appears, read: increasing MK886 combined with 50 μM Diclofenac.
Setting [15] is: increasing MK886 combined with 0.4 mM ASA.

Molecules are shown by their SMILES. Like-named read-outs stand apart in the source and are kept apart here.

Chain of COX-1 (P23219 24-599): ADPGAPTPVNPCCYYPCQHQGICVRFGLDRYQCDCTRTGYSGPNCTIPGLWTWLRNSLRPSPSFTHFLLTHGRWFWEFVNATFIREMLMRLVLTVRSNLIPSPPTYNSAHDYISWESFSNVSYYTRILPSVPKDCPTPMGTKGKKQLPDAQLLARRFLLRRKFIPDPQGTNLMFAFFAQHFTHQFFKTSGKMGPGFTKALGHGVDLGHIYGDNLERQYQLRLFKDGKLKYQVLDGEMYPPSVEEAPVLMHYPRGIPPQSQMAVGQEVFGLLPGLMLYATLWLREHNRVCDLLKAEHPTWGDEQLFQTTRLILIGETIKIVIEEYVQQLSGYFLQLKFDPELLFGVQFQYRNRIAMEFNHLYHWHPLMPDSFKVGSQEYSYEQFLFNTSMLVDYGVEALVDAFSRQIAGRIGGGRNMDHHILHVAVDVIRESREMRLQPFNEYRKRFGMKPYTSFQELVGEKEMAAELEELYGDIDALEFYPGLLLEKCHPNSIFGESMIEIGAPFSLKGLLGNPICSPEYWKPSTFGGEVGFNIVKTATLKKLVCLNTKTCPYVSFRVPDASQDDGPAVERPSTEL

`CC(C)=CCC[C@]1(C)[C@@H](CC=C(C)C)C[C@@]2(CC=C(C)C)C(=O)[C@]1(C(=O)C(C)C)C(=O)C(CC=C(C)C)=C2O` [hyperforin]: at COX-1, the “COX-1 inhibition relative to aspirin” value was 3-18 times.

Take `CCC/C=C/C/C=C/C=C/C=N/NN=O` [TrC, Triacsin C]: the senolytic effect entry in data set [1] (setting [11]) was “significant senolytic effect”. For the same molecule, the “EC50 fold change between senescent and quiescent cells” value in [2] (TrC as single treatment) was 9.19 fold; in [2] (increasing TrC combined with 1 μM MK886 and 50 μM Diclofenac) it was 13.75 fold; in data set [3] (single treatment), “around 350 fold”.

As for `O=C(O)Cc1ccccc1Nc1c(Cl)cccc1Cl` [Diclofenac], the “EC50 fold change between senescent and quiescent cells” value in data set [3] (single treatment) was 3.02 fold.

As to `CC1(C)CCC(c2ccc(Cl)cc2)=C(CN2CCN(c3ccc(C(=O)NS(=O)(=O)c4ccc(N[C@H](CCN5CCOCC5)CSc5ccccc5)c(S(=O)(=O)C(F)(F)F)c4)cc3)CC2)C1` [Navitoclax], the senolytic effect result in [4] is listed as “significant senolytic effect”; in [1] (setting [11]), “no senolytic effect”.

Consider `NC(CO)(CO)CO.O=C(O)CCc1ccc2c(c1)c(CCc1ccccc1)cn2-c1ccc(Oc2ccccc2)cc1` [ASB14780], for which, in data set [5] (setting [12]), the “effect on the cytotoxic effect of TrC and MK886 on senescent cells” value is “reduced the cytotoxic effect”; the “viability of quiescent cells” value is on record as “only affected to a minor extent”.

Take `CNc1ccc2oc(C[C@H]3O[C@@]4(CC[C@H]3C)O[C@H]([C@H](C)C(=O)c3ccc[nH]3)[C@H](C)C[C@H]4C)nc2c1C(=O)O` [A23187]: the “effect on the senolytic effect of 1 μM TrC and 1 μM MK886” value in data set [5] (2.5 μM A23187 added, 72 hours) is on record as “abolishing the senolytic effect”.

Broadly, the EC50 is the concentration that produces a half-maximal response. For `CC(C)c1ccc2c(c1)c(SC(C)(C)C)c(CC(C)(C)C(=O)O)n2Cc1ccc(Cl)cc1` [MK886], the “fold change between the EC50 of senescent versus quiescent cells” value (“fold change between the EC50” for short) in [6] (MK886 as single treatment) came to 1.58 fold; in data set [6] (MK886 combined with 2 μM Celecoxib), 2.55 fold; in data set [6] (setting [13]), 2.53 fold; in data set [6] (MK886 combined with 0.4 mM ASA) it was 1.95 fold; in [8] (MK886 as single treatment), 1.49 fold; in data set [8] (setting [13]), 2.52 fold. For the same molecule, the “fold change between the EC50” value in data set [8] (MK886 combined with 0.4 mM ASA) is listed as 1.51 fold; in [8] (MK886 combined with 0.4 mM ASA and 2 μM CsA), 2.81 fold; in data set [9] (MK886 as single treatment) it was 1.31 fold; in data set [9] (setting [13]), 1.61 fold; in data set [9] (MK886 combined with 100 μM Diclofenac) it was 1.88 fold; in [9] (MK886 combined with 200 μM Diclofenac) it was 1.64 fold. For the same molecule, the “fold change between the EC50” value in data set [9] (MK886 combined with 0.4 mM ASA) was 1.46 fold; in [9] (MK886 combined with 0.4 mM ASA and 5 μM Oligomycin A), 4.51 fold. Besides, the EC50 in data set [6] (MK886 as single treatment) amounted to 26.4 µM; in data set [6] (increasing MK886 combined with 2 μM Celecoxib), 17 µM; in data set [6] (setting [14]) it was 9 µM; in [6] (setting [15]), 18.8 µM; in data set [8] (MK886 as single treatment), 34 µM; in data set [8] (setting [14]), 12.4 µM. For the same molecule, the EC50 in data set [8] (increasing MK886 combined with 0.4 mM ASA and 2 μM CsA) came to 14.9 µM; in data set [8] (setting [15]), 29.6 µM; in data set [9] (MK886 as single treatment), 34.7 µM; in data set [9] (setting [14]), 17.3 µM; in data set [9] (increasing MK886 combined with 100 μM Diclofenac) it was 11.2 µM; in [9] (increasing MK886 combined with 200 μM Diclofenac), 8.39 µM. Moreover, the EC50 was determined as 9.9 µM in data set [9] (increasing MK886 combined with 0.4 mM ASA and 5 μM Oligomycin A); 30.4 µM in data set [9] (setting [15]). The “intracellular AA levels” value in data set [7] was “increased”. Moreover, the senolytic effect entry is listed as “significant senolytic effect” in [1] (increasing MK886 combined with 0.5 μM TrC (dual inhibition of ACSL4 and ALOX5)); “not significant” in data set [1] (setting [11]); “significant senolytic effect” in data set [10]. For the same molecule, the “EC50 fold change between senescent and quiescent cells” value in data set [3] (increasing MK886 combined with 0.1 μM TrC and 25 μM Diclofenac) is “around 700 fold”; in [3] (increasing MK886 combined with 25 μM Diclofenac) it was 5.11 fold; in data set [3] (single treatment), 2.66 fold.

For `CC1(C)Cc2c(-c3ccccc3)c(-c3ccc(Cl)cc3)c(CC(=O)O)n2C1` [Licofelone], in data set [4], the senolytic effect entry is reported as “significant senolytic effect”.

Regarding `CC(=O)Oc1ccccc1C(=O)O` [ASA, acetylsalicylic acid], the senolytic effect entry in data set [4] and in [10] was “significant senolytic effect” each time.

The term IC50 denotes the concentration that inhibits the measured activity by half. Turning to `O=c1c(O)c(-c2ccc(O)c(O)c2)oc2cc(O)cc(O)c12` [Quercetin], on cyclooxygenase, the IC50 was no less than 100 µM.
